# Read-outs that look alike come from different tables or passages of the source.
# Columns and labels:
# Thoracic aortic rings = experiment: Alternative thoracic aortic rings assay (Example 19b; resting tension as 100% inhibition); design: species or system rat; conditions: Rattus norvegicus, Table 10B; for inhibition at 1 µM: read-out: Percent Relaxation at 1 μM; for inhibition at 3 µM: read-out: Percent Relaxation at 3 μM; for EC50: read-out: Aortic Ring EC50; for inhibition at 10 µM: read-out: Percent Relaxation at 10 μM
# Outline: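 EC50 values come from cumulative concentration-response relaxation of phenylephrine (100 ng/mL)-contracted thoracic aortic rings from 275-299 g male Sprague-Dawley rats. Rings were equilibrated at 1.0 g tension in oxygenated Krebs-Henseleit at 37 °C, with compounds given in DMSO and tension measured isometrically.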
# [1] = target: T1, soluble guanylate cyclase (sGC) (Homo sapiens (Human), UniProt Q02108+Q02153); experiment: sGC-HEK-cGMP assay run in the absence of SNP (HEK WC assay); assay type: cell-based; conditions: compound at 30 μM, absence of SNP
# Outline: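 Intracellular cGMP was measured by LC/MS, using a standard curve, in HEK293 cells treated with compound for 10 min at 37° C after a 15 min 0.5 mM IBMX pretreatment, with no SNP present. Lysis and quench used 0.1 M HCl. EC50 values came from concentration-response fits.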
# [2] = target: T1, soluble guanylate cyclase (sGC); experiment: sGC-HEK-cGMP assay run with SNP incubation (HEK WC assay); assay type: cell-based; conditions: for HEK WC Assay (fold increase at 30 μM in the presence of 10 μM SNP): compound at 30 μM; for EC50: in the presence of 10 uM SNP
# Outline: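 EC50 values derive from concentration-response curves of intracellular cGMP in HEK293 cells, which express sGC endogenously. Compound and sodium nitroprusside were co-incubated 10 min at 37 °C after a 15-min 0.5 mM IBMX step, with 0.1 M HCl lysis and 1% DMSO vehicle.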
# [3] = read-out: HEK WC Assay (% Emax at 10 μM with 10 uM SNP)
# [4] = read-out: HEK WC Assay (% Emax at 30 μM with 10 uM SNP)
# [5] = read-out: HEK WC Assay (% Emax at 1 μM with 10 uM SNP)
# T1 sequence (Q02153 whole entry): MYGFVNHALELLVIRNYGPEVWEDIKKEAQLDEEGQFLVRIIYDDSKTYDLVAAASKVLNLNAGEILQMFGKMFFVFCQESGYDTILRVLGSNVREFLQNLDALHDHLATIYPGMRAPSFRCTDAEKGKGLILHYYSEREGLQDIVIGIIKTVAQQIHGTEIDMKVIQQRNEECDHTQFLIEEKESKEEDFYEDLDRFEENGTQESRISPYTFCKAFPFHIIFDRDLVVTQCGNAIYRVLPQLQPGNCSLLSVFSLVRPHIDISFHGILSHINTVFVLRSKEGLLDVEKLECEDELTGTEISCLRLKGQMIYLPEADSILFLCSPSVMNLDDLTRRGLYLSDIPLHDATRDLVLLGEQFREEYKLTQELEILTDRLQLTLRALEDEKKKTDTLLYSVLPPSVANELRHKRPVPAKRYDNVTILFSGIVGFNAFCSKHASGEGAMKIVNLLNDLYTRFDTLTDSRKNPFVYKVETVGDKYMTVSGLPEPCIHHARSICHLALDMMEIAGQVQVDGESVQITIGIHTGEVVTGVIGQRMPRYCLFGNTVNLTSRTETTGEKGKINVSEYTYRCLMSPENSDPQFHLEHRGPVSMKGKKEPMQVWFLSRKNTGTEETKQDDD
# T1 sequence (Q02108 whole entry): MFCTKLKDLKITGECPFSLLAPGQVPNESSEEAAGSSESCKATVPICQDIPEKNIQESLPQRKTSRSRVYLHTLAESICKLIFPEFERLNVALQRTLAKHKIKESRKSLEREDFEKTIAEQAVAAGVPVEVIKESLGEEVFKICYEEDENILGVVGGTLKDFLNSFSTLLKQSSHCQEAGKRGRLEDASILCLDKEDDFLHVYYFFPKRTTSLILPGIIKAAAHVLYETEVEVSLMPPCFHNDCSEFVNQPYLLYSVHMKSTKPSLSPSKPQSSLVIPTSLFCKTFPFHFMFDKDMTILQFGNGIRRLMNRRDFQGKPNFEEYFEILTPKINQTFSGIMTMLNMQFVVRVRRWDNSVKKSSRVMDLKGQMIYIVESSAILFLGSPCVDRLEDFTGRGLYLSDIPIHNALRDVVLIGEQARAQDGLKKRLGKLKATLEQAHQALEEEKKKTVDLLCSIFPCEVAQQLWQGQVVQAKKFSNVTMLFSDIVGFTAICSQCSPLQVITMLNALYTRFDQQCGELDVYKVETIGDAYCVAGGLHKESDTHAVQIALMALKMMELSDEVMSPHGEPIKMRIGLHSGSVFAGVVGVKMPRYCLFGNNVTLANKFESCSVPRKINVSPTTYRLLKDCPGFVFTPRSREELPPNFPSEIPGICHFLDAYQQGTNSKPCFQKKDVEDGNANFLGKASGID
Compound,inhibition at 1 µM (Thoracic aortic rings) [%],inhibition at 3 µM (Thoracic aortic rings) [%],EC50 (Thoracic aortic rings) [µM],HEK WC Assay (fold increase at 30 μM in the absence of SNP) [1],HEK WC Assay (fold increase at 30 μM in the presence of 10 μM SNP) [2],EC50 [2] [µM],"Emax [2, 3] [%]","Emax [2, 4] [%]",inhibition at 10 µM (Thoracic aortic rings) [%],"Emax [2, 5] [%]"
Nc1nc(-c2cc(-c3ccon3)n(Cc3ccccc3F)n2)ncc1NC(=O)c1ccccn1 [Compound I-162],100 to 120,> 120,< 2,E (E = 10 to <20 fold increase),G (G = 30 to <40 fold increase),< 20,80 to 100,60 to 80,,
Cc1csc(-c2cc(-c3ncccn3)nn2Cc2ccccc2F)n1 [Compound I-294],20 to 40,60 to 80,< 2,B (B = 1 to <2 fold increase),D (D = 5 to <10 fold increase),40 to 60,20 to 40,20 to 40,100 to 120,
Fc1ccccc1Cn1nc(-c2ccccn2)cc1-c1ncon1 [Compound I-304],20 to 40,60 to 80,< 2,C (C = 2 to <5 fold increase),E (E = 10 to <20 fold increase),20 to 40,20 to 40,40 to 60,80 to 100,
Nc1nc(-c2cc(-c3ncco3)n(Cc3ccccc3F)n2)ncc1F [Compound I-147],60 to 80,80 to 100,< 2,D (D = 5 to <10 fold increase),E (E = 10 to <20 fold increase),< 20,80 to 100,60 to 80,80 to 100,
CC(C)COC(=O)Nc1cnc(-c2cc(-c3ccon3)n(Cc3ccccc3F)n2)nc1N [Compound I-150],40 to 60,80 to 100,< 2,E (E = 10 to <20 fold increase),E (E = 10 to <20 fold increase),< 20,80 to 100,80 to 100,80 to 100,
N#CC1(C(=O)Nc2cnc(-c3cc(-c4ccon4)n(Cc4ccccc4F)n3)nc2N)CC1 [Compound I-238],80 to 100,100 to 120,< 2,E (E = 10 to <20 fold increase),E (E = 10 to <20 fold increase),< 20,100 to 120,100 to 120,100 to 120,80 to 100
Nc1nc(-c2cc(-c3ccon3)n(Cc3ccccc3F)n2)ncc1NC(=O)c1cnco1 [Compound I-188],80 to 100,100 to 120,< 2,E (E = 10 to <20 fold increase),F (F = 20 to <30 fold increase),< 20,60 to 80,60 to 80,100 to 120,40 to 60
Nc1nc(-c2cc(-c3ccon3)n(Cc3ccccc3F)n2)ncc1N1CCOC1=O [Compound I-153],60 to 80,60 to 80,< 2,C (C = 2 to <5 fold increase),D (D = 5 to <10 fold increase),< 20,40 to 60,60 to 80,80 to 100,
Nc1nc(-c2cc(-c3ccon3)n(Cc3ccccc3F)n2)ncc1NC(=O)C1(C(F)(F)F)CC1 [Compound I-237],60 to 80,80 to 100,< 2,E (E = 10 to <20 fold increase),F (F = 20 to <30 fold increase),< 20,100 to 120,100 to 120,100 to 120,80 to 100
CC1(C(=O)Nc2cnc(-c3cc(-c4ccon4)n(Cc4ccccc4F)n3)nc2N)CC1 [Compound I-206],20 to 40,60 to 80,< 2,E (E = 10 to <20 fold increase),F (F = 20 to <30 fold increase),< 20,100 to 120,100 to 120,80 to 100,100 to 120
COc1cccc(C(=O)Nc2cnc(-c3cc(-c4ccon4)n(Cc4ccccc4F)n3)nc2N)c1 [Compound I-174],80 to 100,80 to 100,< 2,E (E = 10 to <20 fold increase),F (F = 20 to <30 fold increase),< 20,80 to 100,100 to 120,,60 to 80
CC(C)(C)OC(=O)Nc1cnc(-c2cc(-c3ncco3)n(Cc3ccccc3F)n2)nc1N [Compound I-148],80 to 100,80 to 100,< 2,D (D = 5 to <10 fold increase),E (E = 10 to <20 fold increase),< 20,100 to 120,100 to 120,,
CC(C)C(=O)Nc1cnc(-c2cc(-c3ccon3)n(Cc3ccccc3F)n2)nc1N [Compound I-165],60 to 80,80 to 100,< 2,D (D = 5 to <10 fold increase),F (F = 20 to <30 fold increase),< 20,80 to 100,100 to 120,100 to 120,40 to 60
COCC(=O)Nc1cnc(-c2cc(-c3ccon3)n(Cc3ccccc3F)n2)nc1N [Compound I-177],80 to 100,80 to 100,< 2,D (D = 5 to <10 fold increase),E (E = 10 to <20 fold increase),< 20,80 to 100,80 to 100,,40 to 60
O=C(Nc1cnc(-c2cc(-c3ccon3)n(Cc3ccccc3F)n2)nc1O)c1ccccc1 [Compound I-158],10 to 20,40 to 60,4 to 8,C (C = 2 to <5 fold increase),,100 to 300,20 to 40,20 to 40,80 to 100,0 to 10
Nc1ccnc(-c2cc(-c3cnco3)n(Cc3ccccc3F)n2)n1 [Compound I-296],20 to 40,40 to 60,,C (C = 2 to <5 fold increase),E (E = 10 to <20 fold increase),< 20,20 to 40,60 to 80,80 to 100,

# From patent publication US10189809B2, “SGC stimulators” (Ironwood Pharmaceuticals, Inc., priority 2010, dated 2019)
